Assays:
[1] = molecular target: T1, HCV polymerase 1A (Δ21 NS5B) (Hepatitis C virus genotype 1a, UniProt P27958); assay: HCV Polymerase Inhibition Assay (1a); assay type: biochemical
T1 construct: 20 to 50nM Δ21 NS5B
Summary of the method: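 Δ21 NS5B reactions contained 20 μM CTP, 20 μM ATP, 1 μM ³H-UTP and 5 nM template RNA and ran for 2–4 h at room temperature. RNA was then spermine-precipitated, filter-captured and counted by scintillation. IC50 came from a tight-binding (Morrison) nonlinear fit of retained cpm against inhibitor concentration.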

[2] = molecular target: T2, HCV polymerase 1B (Δ21 NS5B) (Hepatitis C virus genotype 1b, UniProt P26663); assay: biochemical
T2 construct: 20 to 50nM Δ21 NS5B
Summary of the method: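 Inhibitor pre-incubated 15 min at room temperature with Δ21 NS5B (strain BK or H77, 20–50 nM), 60–125 μM GTP, 2 mM MnCl2, pH 7.4. Reaction started with 20 μM CTP, 20 μM ATP, 1 μM 3H-UTP and 5 nM template RNA, run 2–4 h at room temperature. Spermine-precipitated RNA filter-captured and scintillation-counted; IC50 from tight-binding equation fit.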

[3] = tested on: genotype 1a-H77 subgenomic replicon cell line; assay: microbe, parasite or virus in culture; assay type: cell-based, HCV; conditions: Hepatitis C virus, 72 h, read-out: EC50 1a
[4] = tested on: genotype 1b-Con1 subgenomic replicon cell line; assay: microbe, parasite or virus in culture; assay type: cell-based, HCV; conditions: Hepatitis C virus, 72 h, read-out: EC50 1b

T1 sequence (P27958 2421-2990, stated change not applied): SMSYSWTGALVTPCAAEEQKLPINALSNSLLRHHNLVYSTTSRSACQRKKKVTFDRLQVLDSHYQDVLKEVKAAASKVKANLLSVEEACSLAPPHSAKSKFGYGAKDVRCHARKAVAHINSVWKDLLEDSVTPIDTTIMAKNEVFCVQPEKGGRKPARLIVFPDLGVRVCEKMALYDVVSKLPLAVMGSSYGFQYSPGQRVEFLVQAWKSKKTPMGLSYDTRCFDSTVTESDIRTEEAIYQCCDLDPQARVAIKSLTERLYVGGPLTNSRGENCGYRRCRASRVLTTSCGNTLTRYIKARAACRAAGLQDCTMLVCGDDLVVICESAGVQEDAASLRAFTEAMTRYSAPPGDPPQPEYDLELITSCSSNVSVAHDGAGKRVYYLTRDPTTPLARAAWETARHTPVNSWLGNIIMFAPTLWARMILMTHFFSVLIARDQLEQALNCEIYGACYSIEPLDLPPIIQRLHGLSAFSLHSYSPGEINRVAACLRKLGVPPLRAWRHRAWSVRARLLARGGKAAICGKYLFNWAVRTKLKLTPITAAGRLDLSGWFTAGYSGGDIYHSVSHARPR
T2 sequence (P26663 2420-2989, stated change not applied): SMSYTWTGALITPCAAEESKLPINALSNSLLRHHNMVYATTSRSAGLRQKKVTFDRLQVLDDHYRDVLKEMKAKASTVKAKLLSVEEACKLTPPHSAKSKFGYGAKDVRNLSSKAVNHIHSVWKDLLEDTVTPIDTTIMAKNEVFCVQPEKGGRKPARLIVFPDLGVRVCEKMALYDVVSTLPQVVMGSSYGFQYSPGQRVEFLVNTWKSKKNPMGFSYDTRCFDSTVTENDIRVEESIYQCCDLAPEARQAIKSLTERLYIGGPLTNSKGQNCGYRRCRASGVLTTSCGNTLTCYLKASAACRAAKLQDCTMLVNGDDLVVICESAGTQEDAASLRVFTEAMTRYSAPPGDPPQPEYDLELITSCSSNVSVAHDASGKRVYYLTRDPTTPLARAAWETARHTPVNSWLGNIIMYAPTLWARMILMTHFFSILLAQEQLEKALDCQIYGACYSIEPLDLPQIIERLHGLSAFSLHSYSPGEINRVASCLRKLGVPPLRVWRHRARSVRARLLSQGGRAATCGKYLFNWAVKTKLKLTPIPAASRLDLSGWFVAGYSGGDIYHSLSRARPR

Compound | IC50 [1] [µM] | IC50 [2] [µM] | EC50 [3] [µM] | EC50 [4] [µM] | melting point [°C]
CC(C)(C)c1cc(-n2ccc(=O)[nH]c2=O)cc(-c2ccc3cc(NS(C)(=O)=O)ccc3c2)c1Cl [IB-L0-2.14, N-(6-(3-tert-butyl-2-chloro-5-(2,4-dioxo-3,4-dihydropyrimidin-1(2H)-yl)phenyl)naphthalen-2-yl)methanesulfonamide] | < 0.01 | < 0.01 | 0.1 to 1 | 0.01 to 0.1 | > 280
CCOc1c(-c2ccc3cc(NS(C)(=O)=O)ccc3c2)cc(-n2ccc(=O)[nH]c2=O)cc1C(C)(C)C [IB-L0-2.23, N-(6-(3-tert-butyl-5-(2,4-dioxo-3,4-dihydropyrimidin-1(2H)-yl)-2-ethoxyphenyl)naphthalen-2-yl)methanesulfonamide] | 0.01 to 0.1 | < 0.01 | 0.1 to 1 | 0.01 to 0.1 | 196 to 202
COc1c(-c2ccc3cc(NS(C)(=O)=O)ccc3c2)cc(-n2ccc(=O)[nH]c2=O)cc1C(C)(C)CO [IB-L0-2.54, N-(6-(5-(2,4-dioxo-3,4-dihydropyrimidin-1(2H)-yl)-3-(1-hydroxy-2-methylpropan-2-yl)-2-methoxyphenyl)naphthalen-2-yl)methanesulfonamide] | < 0.01 | 0.01 to 0.1 | 0.01 to 0.1 | 0.01 to 0.1 | 256 to 257
COc1c(-c2ccc3cc(NS(C)(=O)=O)ccc3c2)cc(-n2ccc(=O)[nH]c2=O)cc1-c1ccc(C)o1 [IB-L0-2.58, N-(6-(5-(2,4-dioxo-3,4-dihydropyrimidin-1(2H)-yl)-2-methoxy-3-(5-methylfuran-2-yl)phenyl)naphthalen-2-yl)methanesulfonamide] | < 0.01 | 0.01 to 0.1 | 0.01 to 0.1 | < 0.01 | 174 to 178
COc1c(-c2ccc3cc(NS(C)(=O)=O)ccc3c2)cc(-n2ccc(=O)[nH]c2=O)cc1C(F)(F)C(F)(F)F [IB-L0-2.60, N-(6-(5-(2,4-dioxo-3,4-dihydropyrimidin-1(2H)-yl)-2-methoxy-3-(perfluoroethyl)phenyl)naphthalen-2-yl)methanesulfonamide] | < 0.01 | 0.01 to 0.1 | 0.1 to 1 | 0.01 to 0.1 | 162 to 165
COc1c(-c2ccoc2)cc(-n2ccc(=O)[nH]c2=O)cc1-c1ccc2cc(NS(C)(=O)=O)ccc2c1 [IB-L0-2.64, N-(6-(5-(2,4-dioxo-3,4-dihydropyrimidin-1(2H)-yl)-3-(furan-3-yl)-2-methoxyphenyl)naphthalen-2-yl)methanesulfonamide] | 0.01 to 0.1 | 0.01 to 0.1 | 0.1 to 1 | < 0.01 | 
COCC(C)(C)c1cc(-n2ccc(=O)[nH]c2=O)cc(-c2ccc3cc(NS(C)(=O)=O)ccc3c2)c1OC [IB-L0-2.66, N-(6-(5-(2,4-dioxo-3,4-dihydropyrimidin-1(2H)-yl)-2-methoxy-3-(1-methoxy-2-methylpropan-2-yl)phenyl)naphthalen-2-yl)methanesulfonamide] | 0.01 to 0.1 | 0.01 to 0.1 | 0.1 to 1 | 0.01 to 0.1 | 
COc1c(-c2ccc3cc(NS(C)(=O)=O)ccc3c2)cc(-n2ccc(=O)[nH]c2=O)cc1S(C)(=O)=O [IB-L0-2.68, N-(6-(5-(2,4-dioxo-3,4-dihydropyrimidin-1(2H)-yl)-2-methoxy-3-(methylsulfonyl)phenyl)naphthalen-2-yl)methanesulfonamide] | 0.01 to 0.1 | 0.01 to 0.1 | > 1 | 0.1 to 1 | 
COc1c(Br)cc(-n2ccc(=O)[nH]c2=O)cc1-c1ccc2cc(NS(C)(=O)=O)ccc2c1 [IB-L0-2.69, N-(6-(3-bromo-5-(2,4-dioxo-3,4-dihydropyrimidin-1(2H)-yl)-2-methoxyphenyl)naphthalen-2-yl)methanesulfonamide] | 0.01 to 0.1 | 0.01 to 0.1 | 0.1 to 1 | 0.01 to 0.1 | 
COC(=O)C(C)(C)c1cc(-n2ccc(=O)[nH]c2=O)cc(-c2ccc3cc(NS(C)(=O)=O)ccc3c2)c1OC [IB-L0-2.70, methyl 2-(5-(2,4-dioxo-3,4-dihydropyrimidin-1(2H)-yl)-2-methoxy-3-(6-(methylsulfonamido)naphthalen-2-yl)phenyl)-2-methylpropanoate] | 0.01 to 0.1 | 0.1 to 1 | > 1 | 0.1 to 1 | 
COc1c(-c2ccccc2)cc(-n2ccc(=O)[nH]c2=O)cc1-c1ccc2cc(NS(C)(=O)=O)ccc2c1 [IB-L0-2.71, N-(6-(5-(2,4-dioxo-3,4-dihydropyrimidin-1(2H)-yl)-2-methoxy-biphenyl-3-yl)naphthalen-2-yl)methanesulfonamide] | 0.1 to 1 | 0.1 to 1 | 0.1 to 1 | 0.01 to 0.1 | 
COC(=O)c1cc(-n2ccc(=O)[nH]c2=O)cc(-c2ccc3cc(NS(C)(=O)=O)ccc3c2)c1OC [IB-L0-2.72, methyl 5-(2,4-dioxo-3,4-dihydropyrimidin-1(2H)-yl)-2-methoxy-3-(6-(methylsulfonamido)naphthalen-2-yl)benzoate] | 0.1 to 1 | 0.1 to 1 | > 1 | 0.1 to 1 | 
COc1c(-c2ccc3cc(NS(C)(=O)=O)ccc3c2)cc(-n2ccc(=O)[nH]c2=O)cc1-c1ccc(C)s1 [IB-L0-2.73, N-(6-(5-(2,4-dioxo-3,4-dihydropyrimidin-1(2H)-yl)-2-methoxy-3-(5-methylthiophen-2-yl)phenyl)naphthalen-2-yl)methanesulfonamide] | 0.1 to 1 | 0.1 to 1 | 0.1 to 1 | 0.1 to 1 | 
COc1c(-c2cccc(Cl)c2)cc(-n2ccc(=O)[nH]c2=O)cc1-c1ccc2cc(NS(C)(=O)=O)ccc2c1 [IB-L0-2.74, N-(6-(3′-chloro-5-(2,4-dioxo-3,4-dihydropyrimidin-1(2H)-yl)-2-methoxybiphenyl-3-yl)naphthalen-2-yl)methanesulfonamide] | 0.1 to 1 | 0.1 to 1 | > 1 | 0.1 to 1 | 
COc1c(NS(C)(=O)=O)cc(-n2ccc(=O)[nH]c2=O)cc1-c1ccc2cc(NS(C)(=O)=O)ccc2c1 [IB-L0-2.75, N-(5-(2,4-dioxo-3,4-dihydropyrimidin-1(2H)-yl)-2-methoxy-3-(6-(methylsulfonamido)naphthalen-2-yl)phenyl)methanesulfonamide] | 0.1 to 1 | > 1 | > 1 | > 1 | 
COc1c(-c2ccc3cc(NS(C)(=O)=O)ccc3c2)cc(-n2ccc(=O)[nH]c2=O)cc1C(C)(C)C(=O)O [IB-L0-2.77, 2-(5-(2,4-dioxo-3,4-dihydropyrimidin-1(2H)-yl)-2-methoxy-3-(6-(methylsulfonamido)naphthalen-2-yl)phenyl)-2-methylpropanoic acid] | > 1 | > 1 |  |  | > 300
COc1c(C#C[Si](C)(C)C)cc(-n2ccc(=O)[nH]c2=O)cc1-c1ccc2cc(NS(C)(=O)=O)ccc2c1 [IB-L0-2.78, N-(6-(5-(2,4-dioxo-3,4-dihydropyrimidin-1(2H)-yl)-2-methoxy-3-((trimethylsilyl)ethynyl)phenyl)naphthalen-2-yl)methanesulfonamide] | > 1 | > 1 |  |  | 175 to 178
COc1c(N2Cc3ccc(NS(C)(=O)=O)cc3C2)cc(-n2ccc(=O)[nH]c2=O)cc1C(C)(C)C [IB-L0-2.79, N-(2-(3-tert-butyl-5-(2,4-dioxo-3,4-dihydropyrimidin-1(2H)-yl)-2-methoxyphenyl)isoindolin-5-yl)methanesulfonamide] | 0.01 to 0.1 | 0.01 to 0.1 | 0.1 to 1 | 0.1 to 1 | 

Source: patent US8501238B2, “Anti-infective agents and uses thereof” (priority 2007, dated 2013)
